± gives the expanded uncertainty stated by the source.

This series is described as follows: osmotic coefficient (dimensionless); mn = molality of the nth substance listed, in mol/kg. To be noted: 298.15 K, Liquid, vapor pressure osmometry.

As for `[Cl-].[Na+]` [sodium chloride] + O, the osmotic coefficient (m1 = 0.2485) amounted to 0.95 ± 0.02, the osmotic coefficient (m1 = 0.5058) was 0.922 ± 0.02 and the osmotic coefficient (m1 = 1.993) worked out at 0.976 ± 0.02.

Source of the values: the NIST ThermoML archive (doi:10.1021/je500271z).
